Results as given in patent US11617777B2, “Cytotoxic and anti-mitotic compounds, and methods of using the same” (ZYMEWORKS BC INC., priority 2013, dated 2023).
Read-outs that look alike come from different tables or passages of the source.

Experiments:
Assay in all cases: Cytotoxicity of compounds, CellTiter-Glo
PANC-1 = format: cell-based; settings: Homo sapiens, Table 5, read-out: Cytotoxicity (EC50) PANC-1
Text: (§1) FIG. 1 summarizes the data for compounds A, B, C, D, and E when tested using the Human mammary carcinoma cell line HCC1954 or Human T-cell leukemia cell line Jurkat. FIGS. 2-6 show the cytotoxicity data plots for individual compounds A-E. Tables 2-6 summarize the results of additional cytotoxicity assays.
(§2) Cell lines used: Human T-cell leukemia cell line Jurkat (ATCC: TIB-152); HCC1954 (ATCC: CRL. 2338); Human Pancreatic cells lines: AsPC-1 (ATCC: CRL-1682), BxPC-3 (ATCC: CRL.1687), HPAF-II (ATCC: CRL.1997), MiaPaCa2 (ATCC: CRL.1420), PANC-1 (ATCC: CRL.1469), Capan-1 (ATCC: HTB-79), Capan-2 (ATCC: HTB-80) and the Human gastric carcinoma cell line NCI-N87 (ATCC: CRL. 5822); AML-193 (ATCC: CRL.9589), CCRF-CEM (ATCC: CCL-119), DU145 (ATCC: HTB-81), PC-3 (ATCC: CRL.1435), A-431 (ATCC: CRL.1555), HT-29 (ATCC: HTB-38), A-172 (ATCC: CRL.1620), NCI-H358 (ATCC: CRL.5807), A549 (ATCC: CCL-185), Colo-205 (ATCC: CCL-222), MDA-MB-231 (ATCC: HTB-26), OVCAR-3 (ATCC: HTB-161), OV-90 (ATCC: CRL.11732), OE19 (Sigma: 96071721), RT 112/84 (Sigma: 85061106).
(§3) On the day prior to adding compounds, HCC1954 AsPC-1, BxPC-3, HPAF-II, MiaPaCa2, PANC-1, Capan-1, Capan-2 and NCI-N87 cells were added to opaque-walled 96-well tissue culture-treated microtiter plates using complete growth medium at a density of 2500 cells/100 microlitre (uL) of medium. These adherant cell lines cells were incubated for one night at 37° C./5% CO2 to allow the cells to attach to the microtiter plate surface. On the day that compounds were added, Jurkat cells are added to separate 96-well microtiter plates at 2500 cells/100 uL using the same growth medium as HCC1954. Compound were first serially diluted using dimethyl sulfoxide, and then the prepared dilutions are added to complete growth medium at five-times the final concentration—compounds were then titrated 1:3, eight steps. A control with no compound (growth medium alone) was included on each microtiter plate in sextuplicate. The prepared compounds titrations were added (twenty-five uL/well) in triplicate. The cells and compound titrations were incubated at 37° C./5% CO2 for three nights. After the incubation, cell viability is measured using CellTiter-Glo® reagent by adding thirty uL of prepared CellTiter-Glo® to each assay well. The assay is incubated for at least twenty minutes in the dark prior to measuring emitted luminescence using a microplate luminometer (500 ms integration time). The collected relative luminescence units (RLU) are converted to % cytotoxicity using the Growth medium alone control mentioned above (% Cytotoxicity=1−[Well RLU/average medium alone control RLU]).
(§4) GraphPad Prism was used for generation of EC50 values using three parameter non-linear regression curve fitting.

HPAF-II = format: cell-based; settings: Homo sapiens, Table 5, read-out: Cytotoxicity (EC50) HPAF-II
Text: as §1, §2, §3, §4

MiaPaCa2 = format: cell-based; settings: Homo sapiens, MIA PaCa-2; Table 5; MinPaCa2; read-out: Cytotoxicity (EC50) MinPaCa2
Text: as §1, §2, §3, §4

AsPC-1 = format: cell-based; settings: Homo sapiens, ASPC1, Table 5, read-out: Cytotoxicity (EC50) AsPC-1
Text: as §1, §2, §3, §4

BxPC-3 = format: cell-based; settings: Homo sapiens, Table 5, read-out: Cytotoxicity (EC50) BxPC-3
Text: as §1, §2, §3, §4

NCI-N87 = format: cell-based; settings: Homo sapiens, Table 5, read-out: Cytotoxicity (EC50) NCI-N87
Text: as §1, §2, §3, §4

Jurkat cells = format: cell-based, Human; settings: Homo sapiens, Jurkat
In short: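 HCC1954 plated at 2500 cells/100 uL and attached overnight; Jurkat plated at 2500 cells/100 uL on the day of dosing. Cells exposed to 8-step 1:3 compound titrations for three nights at 37° C./5% CO2, in triplicate. CellTiter-Glo luminescence converted to % cytotoxicity versus medium-only control; EC50 by three-parameter nonlinear regression.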

HCC1954 cells = format: cell-based; settings: Homo sapiens
Text: as §2, §3, §4

[1] = Table 1, Jurkat cells (HER2−), three nights, read-out: Jurkat cells (HER2−) EC50
[2] = Table 3, Cytotoxicity of Compounds on Jurkat Cells, read-out: EC50
[3] = HCC1954, Table 4, Cytotoxicity of Compounds on HCC-1954 Cells, read-out: EC50
[4] = Table 2, HCC1954, read-out: HCC1954 EC50
[5] = Table 6, Compound Cytotoxicity on Jurkat, read-out: EC50

Structure (SMILES): CN[C@H](C(=O)N[C@H](C(=O)N(C)[C@H](/C=C(\C)C(=O)NS(=O)(=O)Cc1ccc(CN)cc1)C(C)C)C(C)(C)C)C(C)(C)c1ccccc1 [Compound 77, (S,E)-N-(4-(aminomethyl)benzylsulfonyl)-2,5-dimethyl-4-((S)—N,3,3-trimethyl-2-((S)-3-methyl-2-(methylamino)-3-phenylbutanamido)butanamido)hex-2-enamide]
- EC50 (PANC-1): 97.2 nM
- EC50 (HPAF-II): 17.2 nM
- EC50 (MiaPaCa2): 94.3 nM
- EC50 (AsPC-1): 15.5 nM
- EC50 (BxPC-3): 36.5 nM

Structure (SMILES): CN[C@H](C(=O)N[C@H](C(=O)N(C)[C@H](/C=C(\C)C(=O)NS(=O)(=O)c1ccc(C)cc1)C(C)C)C(C)(C)C)C(C)(C)c1ccccc1 [Compound D, (S,E)-2,5-dimethyl-N-tosyl-4-((S)—N,3,3-trimethyl-2-((S)-3-methyl-2-(methylamino)-3-phenylbutanamido)butanamido)hex-2-enamide]
- EC50 (NCI-N87): 0.272 nM
- EC50 (PANC-1): 0.806 nM
- EC50 (HPAF-II): 0.177 nM
- EC50 (MiaPaCa2): 0.136 nM
- EC50 (AsPC-1): 0.17 nM
- EC50 (BxPC-3): 0.0664 nM
- EC50 (Jurkat cells; [1]): 0.043 nM
- EC50 (Jurkat cells; Table 2, read-out: Jurkat EC50): 0.04 nM
- EC50 (Jurkat cells; [2]): 0.033 nM
- EC50 (HCC1954 cells; [3]): 0.06 nM
- EC50 (HCC1954 cells; [4]): 0.06 nM

Structure (SMILES): CN[C@H](C(=O)N[C@H](C(=O)N(C)[C@H](/C=C(\C)C(=O)NS(C)(=O)=O)C(C)C)C(C)(C)C)C(C)(C)c1ccccc1 [Compound E, (S,E)-2,5-dimethyl-N-(methylsulfonyl)-4-((S)—N,3,3-trimethyl-2-((S)-3-methyl-2-(methylamino)-3-phenylbutanamido)butanamido)hex-2-enanmide]
- EC50 (Jurkat cells; [1]): 1.67 nM
- EC50 (Jurkat cells; Table 2, read-out: Jurkat EC50): 1.67 nM
- EC50 (Jurkat cells; [2]): 1.67 nM
- EC50 (HCC1954 cells; [3]): 0.79 nM
- EC50 (HCC1954 cells; Table 1, HCC1954 cells (HER2+), three nights, read-out: HCC1954 cells (HER2+) EC50): 0.79 nM
- EC50 (HCC1954 cells; [4]): 0.79 nM

Structure (SMILES): CN[C@H](C(=O)N[C@H](C(=O)N(C)[C@H](/C=C(\C)C(=O)NS(=O)(=O)Cc1ccc(N)cc1)C(C)C)C(C)(C)C)C(C)(C)c1ccccc1 [Compound 80, (S,E)-N-(4-aminobenzylsulfonyl)-2,5-dimethyl-4-((S)—N,3,3-trimethyl-2-((S)-3-methyl-2-(methylamino)-3-phenylbutanamido)butanamido)hex-2-enamide]
- EC50 (Jurkat cells; [2]): 0.389 nM
- EC50 (HCC1954 cells; [3]): 0.207 nM

Structure (SMILES): CN[C@H](C(=O)N[C@H](C(=O)N(C)[C@H](/C=C(\C)C(=O)NS(=O)(=O)c1ccc(NC(=O)C(F)(F)F)cc1)C(C)C)C(C)(C)C)C(C)(C)c1ccccc1 [Compound 23, (S,E)-2,5-dimethyl-N-(4-(2,2,2-trifluoroacetamido)phenylsulfonyl)-4-((S)—N,3,3-trimethyl-2-((S)-3-methyl-2-(methylamino)-3-phenylbutanamido)butanamido)hex-2-enamide]
- EC50 (NCI-N87): 0.402 nM
- EC50 (Jurkat cells; [2]): 0.031 nM

Structure (SMILES): C/C(=C\[C@H](C(C)C)N(C)C(=O)[C@@H](NC(=O)[C@@H]1CCCCN1C(C)C)C(C)(C)C)C(=O)NS(=O)(=O)CCCS [Compound 115, (S)-1-isopropyl-N—((S)-1-(((S,E)-6-(3-mercaptopropylsulfonamido)-2,5-dimethyl-6-oxohex-4-en-3-yl)(methyl)amino)-3,3-dimethyl-1-oxobutan-2-yl)piperidine-2-carboxamide]
- EC50 (Jurkat cells; [2]): 36 nM
- EC50 (HCC1954 cells; [3]): 172 nM

Structure (SMILES): CN[C@H](C(=O)N[C@H](C(=O)N(C)[C@H](/C=C(\C)C(=O)NS(=O)(=O)c1ccc(N)cc1)C(C)C)C(C)(C)C)C(C)(C)c1ccccc1 [Compound 24, (S,E)-N-(4-aminophenylsulfonyl)-2,5-dimethyl-4-((S)—N,3,3-trimethyl-2-((S)-3-methyl-2-(methylamino)-3-phenylbutanamido)butanamido)hex-2-enamide]
- EC50 (PANC-1): 2.18 nM
- EC50 (HPAF-II): 0.396 nM
- EC50 (MiaPaCa2): 0.566 nM
- EC50 (AsPC-1): 0.586 nM
- EC50 (BxPC-3): 0.27 nM
- EC50 (Jurkat cells; [2]): 0.07 nM

Structure (SMILES): CN[C@H](C(=O)N[C@H](C(=O)N(C)[C@H](/C=C(\C)C(=O)NS(=O)(=O)Cc1ccc(NC(=O)C(F)(F)F)cc1)C(C)C)C(C)(C)C)C(C)(C)c1ccccc1 [Compound 79, (S,E)-2,5-dimethyl-N-(4-(2,2,2-trifluoroacetamido)benzylsulfonyl)-4-((S)—N,3,3-trimethyl-2-((S)-3-methyl-2-(methylamino)-3-phenylbutanamido)butanamido)hex-2-enamide]
- EC50 (Jurkat cells; [2]): 0.386 nM
- EC50 (HCC1954 cells; [3]): 0.241 nM

Structure (SMILES): CN[C@H](C(=O)N[C@H](C(=O)N(C)[C@H](/C=C(\C)C(=O)NS(=O)(=O)c1ccc(C2(N)CC2)cc1)C(C)C)C(C)(C)C)C(C)(C)c1ccccc1 [Compound 63, (S,E)-N-(4-(1-aminocyclopropyl)phenylsulfonyl)-2,5-dimethyl-4-((S)—N,3,3-trimethyl-2-((S)-3-methyl-2-(methylamino)-3-phenylbutanamido)butanamido) hex-2-enamide]
- EC50 (PANC-1): 4 nM
- EC50 (HPAF-II): 0.826 nM
- EC50 (MiaPaCa2): 1.02 nM
- EC50 (AsPC-1): 0.97 nM
- EC50 (BxPC-3): 0.697 nM

Structure (SMILES): CN[C@H](C(=O)N[C@H](C(=O)N(C)[C@H](/C=C(\C)C(=O)NS(=O)(=O)Cc1ccc(C(C)(C)C)cc1)C(C)C)C(C)(C)C)C(C)(C)c1ccccc1 [Compound 71, (S,E)-N-(4-tert-butylbenzylsulfonyl)-2,5-dimethyl-4-((S)—N,3,3-trimethyl-2-((S)-3-methyl-2-(methylamino)-3-phenylbutanamido)butanamido)hex-2-enamide]
- EC50 (Jurkat cells; [5]): 1.02 nM

Structure (SMILES): CN[C@H](C(=O)N[C@H](C(=O)N(C)[C@H](/C=C(\C)C(=O)NS(=O)(=O)Cc1ccc(Br)cc1)C(C)C)C(C)(C)C)C(C)(C)c1ccccc1 [Compound 68, (S,E)-N-(4-bromobenzylsulfonyl)-2,5-dimethyl-4-((S)—N,3,3-trimethyl-2-((S)-3-methyl-2-(methylamino)-3-phenylbutanamido)butanamido)hex-2-enamide]
- EC50 (Jurkat cells; [5]): 0.337 nM
